System: 156681-154-R-J1 tumor spheroid viability
Assay: Anticancer human tumor 156681-154-R-J1 patient-derived melanoma cell line growth inhibition
Conditions: spheroids with HUVEC and MSC; for IC50: curve of first compound; for viability, T/C: stronger effect = lower value
Summary of the method: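 Single agents and combinations were tested on spheroids built from tumor cells plus HUVEC and hMSC, at half-log dilutions starting at or near clinical Cmax, else 10 microM; final DMSO 0.25% (v/v).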

[1] = second compound 1 µM, first compound 0.00949 µM
[2] = second compound 1 µM, first compound 0.03 µM
[3] = second compound 1 µM, first compound 0.0949 µM
[4] = second compound 1 µM, first compound 0.3 µM
[5] = second compound 1 µM, first compound 0.949 µM
[6] = second compound 1 µM, first compound 3 µM
[7] = second compound 3.16 µM, first compound 0.00949 µM
[8] = second compound 3.16 µM, first compound 0.03 µM
[9] = second compound 3.16 µM, first compound 0.0949 µM
[10] = second compound 3.16 µM, first compound 0.3 µM
[11] = second compound 3.16 µM, first compound 0.949 µM
[12] = second compound 3.16 µM, first compound 3 µM
[13] = second compound 10 µM, first compound 0.00949 µM
[14] = second compound 10 µM, first compound 0.03 µM
[15] = second compound 10 µM, first compound 0.0949 µM
[16] = second compound 10 µM, first compound 0.3 µM
[17] = second compound 10 µM, first compound 0.949 µM
[18] = second compound 10 µM, first compound 3 µM
[19] = second compound 31.6 µM, first compound 0.00949 µM
[20] = second compound 31.6 µM, first compound 0.03 µM
[21] = second compound 31.6 µM, first compound 0.0949 µM
[22] = second compound 31.6 µM, first compound 0.3 µM
[23] = second compound 31.6 µM, first compound 0.949 µM
[24] = second compound 31.6 µM, first compound 3 µM
[25] = second compound 100 µM, first compound 0.00949 µM
[26] = second compound 100 µM, first compound 0.03 µM
[27] = second compound 100 µM, first compound 0.0949 µM
[28] = second compound 100 µM, first compound 0.3 µM
[29] = second compound 100 µM, first compound 0.949 µM
[30] = second compound 100 µM, first compound 3 µM
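Note: spheroids exposed to compounds for 7 days before readout.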
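Throughout, for viability, T/C: percent of vehicle control viability where 100% = DMSO-treated spheroids.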

| Structure (SMILES) | IC50 (second compound 1 µM) [nM] | IC50 (second compound 3.16 µM) [nM] | IC50 (second compound 10 µM) [nM] | IC50 (second compound 31.6 µM) [nM] | IC50 (second compound 100 µM) [nM] | viability, T/C [3] [%] | viability, T/C [4] [%] | viability, T/C [5] [%] | viability, T/C [6] [%] | viability, T/C [9] [%] | viability, T/C [10] [%] | viability, T/C [11] [%] | viability, T/C [12] [%] | viability, T/C [15] [%] | viability, T/C [16] [%] | viability, T/C [17] [%] | viability, T/C [18] [%] | viability, T/C [21] [%] | viability, T/C [22] [%] | viability, T/C [23] [%] | also measured |
| --- | --- | --- | --- | --- | --- | --- | --- | --- | --- | --- | --- | --- | --- | --- | --- | --- | --- | --- | --- | --- | --- |
| CNCc1ccc(-c2cc(-c3nc(-c4ccc(S(=O)(=O)C(C)C)cc4)cnc3N)on2)cc1 + Cn1nnc2c(C(N)=O)ncn2c1=O | 1230 | 915 | 717 | 494 | 81.6 | 98.8 | 75.5 | 62.3 | 19 | 90 | 72.6 | 50.7 | 16.8 | 80.7 | 64.8 | 46 | 11.1 | 59.5 | 59.8 | 38 | viability, T/C [1]: 107%; viability, T/C [2]: 100%; viability, T/C [7]: 88.2%; viability, T/C [8]: 100%; viability, T/C [13]: 93.6%; viability, T/C [14]: 73.9%; viability, T/C [19]: 63.5%; viability, T/C [20]: 65.1%; viability, T/C [24]: 5.46%; viability, T/C [25]: 54.2%; viability, T/C [26]: 53%; viability, T/C [27]: 54.1%; viability, T/C [28]: 34.6%; viability, T/C [29]: 22.1%; viability, T/C [30]: 1.01% |
| Cc1sc2c(c1C)C(c1ccc(Cl)cc1)=NC(CC(=O)Nc1ccc(O)cc1)c1nnc(C)n1-2 (stereo not given) + Cn1nnc2c(C(N)=O)ncn2c1=O | > 3000 | 857 | 128 | 20.4 | 14.8 | 81.5 | 80.7 | 70.9 | 57 | 76.4 | 54.9 | 52.4 | 37.4 | 47.9 | 41.3 | 35.6 | 24.4 | 31.8 | 29 | 22.6 | viability, T/C [1]: 92%; viability, T/C [2]: 76%; viability, T/C [7]: 90.3%; viability, T/C [8]: 70.2%; viability, T/C [13]: 79.1%; viability, T/C [14]: 75.5%; viability, T/C [19]: 62.3%; viability, T/C [20]: 43%; viability, T/C [24]: 18.6%; viability, T/C [25]: 53.4%; viability, T/C [26]: 44.5%; viability, T/C [27]: 26.4%; viability, T/C [28]: 13.6%; viability, T/C [29]: 12.3%; viability, T/C [30]: 11.7% |
| Cn1ncnc1[C@H]1c2n[nH]c(=O)c3cc(F)cc(c23)N[C@@H]1c1ccc(F)cc1 + Cn1nnc2c(C(N)=O)ncn2c1=O | 971 | 591 | 270 | < 9.49 | < 9.49 | 75 | 72.7 | 50.5 | 16.6 | 71 | 64.1 | 40 | 15.2 | 54.6 | 50 | 33.7 | 13.6 | 34.9 | 29.6 | 17 | viability, T/C [1]: 78.4%; viability, T/C [2]: 83.7%; viability, T/C [7]: 69%; viability, T/C [8]: 74.4%; viability, T/C [13]: 81.1%; viability, T/C [14]: 88.4%; viability, T/C [19]: 44.4%; viability, T/C [20]: 35.4%; viability, T/C [24]: 18%; viability, T/C [25]: 16.3%; viability, T/C [26]: 14.4%; viability, T/C [27]: 12.2%; viability, T/C [28]: 11.3%; viability, T/C [29]: 14%; viability, T/C [30]: 14.4% |
| O=C(c1cc(Cc2n[nH]c(=O)c3ccccc23)ccc1F)N1CCN(C(=O)C2CC2)CC1 + Cn1nnc2c(C(N)=O)ncn2c1=O | > 30000 | 18200 | 14700 | 1200 | < 94.9 | 92.1 | 74.6 | 97.5 | 80.2 | 81.1 | 86.4 | 78.3 | 74.2 | 85.2 | 81.3 | 70.5 | 68.5 | 69 | 63.3 | 48.4 | viability, T/C (second compound 1 µM, first compound 9.49 µM): 66.5%; viability, T/C (second compound 1 µM, first compound 30 µM): 50.3%; viability, T/C (second compound 3.16 µM, first compound 9.49 µM): 52.1%; viability, T/C (second compound 3.16 µM, first compound 30 µM): 48.3%; viability, T/C (second compound 10 µM, first compound 9.49 µM): 55.6%; viability, T/C (second compound 10 µM, first compound 30 µM): 40.9%; viability, T/C [24]: 44.5%; viability, T/C (second compound 31.6 µM, first compound 9.49 µM): 35.6%; viability, T/C (second compound 31.6 µM, first compound 30 µM): 27.4%; viability, T/C [27]: 36.8%; viability, T/C [28]: 34.4%; viability, T/C [29]: 27.4%; viability, T/C [30]: 22.6%; viability, T/C (second compound 100 µM, first compound 9.49 µM): 15.1%; viability, T/C (second compound 100 µM, first compound 30 µM): 21.6% |

From PubChem BioAssay AID1845195 (Molecular Pharmacology Branch, DTP, NCI, 2023)
